Literature values, collected in patent US12409131B2, “Transdermal delivery of dronabinol” (Pike Therapeutics USA, Inc., priority 2019, dated 2025).

Assays:
[1] = in 96 hrs through human cadaver skin, U.S. Pat. No. 8,449,908

Compound: CCCCCc1cc(O)c2c(c1)OC(C)(C)[C@@H]1CCC(C)=C[C@@H]21 (relative stereo) [dronabinol, (6aR-trans)-6a,7,8,10a-tetrahydro-6,6,9-trimethyl-3-pentyl-6H-dibenzo[b,d]pyran-1-ol]
- Oral bioavailability: 10-20%
- cumulative amount delivered [1]: 10000 ng
